Source: ChEMBL document CHEMBL3044736, “Synthesis, characterization, solvatochromic properties, and antimicrobial evaluation of 5-acetyl-2-thioxo-dihydro-pyrimidine-4,6-dione-based chalcones” (2013)
≈ marks a conversion by molar mass, not a printed value.

Legend:
Assay type in all cases: functional
Escherichia coli [1] = assay: Antimicrobial activity against Escherichia coli MTCC 443 assessed as diameter of growth inhibition zone at 25 ug/ml after 18-24 hr by agar cup diffusion method; details: read-out: DIZ
Escherichia coli [2] = assay: Antimicrobial activity against Escherichia coli MTCC 443 assessed as diameter of growth inhibition zone at 50 ug/ml after 18-24 hr by agar cup diffusion method; details: read-out: DIZ
Candida albicans [3] = assay: Antimicrobial activity against Candida albicans MTCC 227 assessed as diameter of growth inhibition zone at 50 ug/ml after 48-96 hr by agar cup diffusion method; details: read-out: DIZ
Escherichia coli [4] = assay: Antimicrobial activity against Escherichia coli MTCC 443 assessed as diameter of growth inhibition zone at 250 ug/ml after 18-24 hr by agar cup diffusion method; details: read-out: DIZ
Pseudomonas aeruginosa [5] = assay: Antimicrobial activity against Pseudomonas aeruginosa MTCC 1688 assessed as diameter of growth inhibition zone at 250 ug/ml after 18-24 hr by agar cup diffusion method; details: read-out: DIZ
Trichophyton rubrum [6] = assay: Antimicrobial activity against Trichophyton rubrum MTCC 296 assessed as diameter of growth inhibition zone at 50 ug/ml after 48-96 hr by agar cup diffusion method; details: read-out: DIZ
Penicillium [7] = assay: Antimicrobial activity against Penicillium wild strain assessed as diameter of growth inhibition zone at 50 ug/ml after 48-96 hr by agar cup diffusion method; details: read-out: DIZ
Pseudomonas aeruginosa [8] = assay: Antimicrobial activity against Pseudomonas aeruginosa MTCC 1688 assessed as diameter of growth inhibition zone at 50 ug/ml after 18-24 hr by agar cup diffusion method; details: read-out: DIZ
Klebsiella pneumoniae [9] = assay: Antimicrobial activity against Klebsiella pneumoniae MTCC 109 assessed as diameter of growth inhibition zone at 50 ug/ml after 18-24 hr by agar cup diffusion method; details: read-out: DIZ
Streptococcus pyogenes [10] = assay: Antimicrobial activity against Streptococcus pyogenes MTCC 442 by agar cup diffusion method
Trichophyton rubrum [11] = assay: Antimicrobial activity against Trichophyton rubrum MTCC 296 assessed as diameter of growth inhibition zone at 100 ug/ml after 48-96 hr by agar cup diffusion method; details: read-out: DIZ
Staphylococcus aureus [12] = assay: Antimicrobial activity against Staphylococcus aureus MTCC 96 by agar cup diffusion method
Penicillium [13] = assay: Antimicrobial activity against Penicillium wild strain assessed as diameter of growth inhibition zone at 250 ug/ml after 48-96 hr by agar cup diffusion method; details: read-out: DIZ
Staphylococcus aureus [14] = assay: Antimicrobial activity against Staphylococcus aureus MTCC 96 assessed as diameter of growth inhibition zone at 100 ug/ml after 18-24 hr by agar cup diffusion method; details: read-out: DIZ
Penicillium [15] = assay: Antimicrobial activity against Penicillium wild strain assessed as diameter of growth inhibition zone at 100 ug/ml after 48-96 hr by agar cup diffusion method; details: read-out: DIZ
Streptococcus pyogenes [16] = assay: Antimicrobial activity against Streptococcus pyogenes MTCC 442 assessed as diameter of growth inhibition zone at 250 ug/ml after 18-24 hr by agar cup diffusion method; details: read-out: DIZ
Trichophyton rubrum [17] = assay: Antimicrobial activity against Trichophyton rubrum MTCC 296 assessed as diameter of growth inhibition zone at 25 ug/ml after 48-96 hr by agar cup diffusion method; details: read-out: DIZ
Streptococcus pyogenes [18] = assay: Antimicrobial activity against Streptococcus pyogenes MTCC 442 assessed as diameter of growth inhibition zone at 25 ug/ml after 18-24 hr by agar cup diffusion method; details: read-out: DIZ
Staphylococcus aureus [19] = assay: Antimicrobial activity against Staphylococcus aureus MTCC 96 assessed as diameter of growth inhibition zone at 50 ug/ml after 18-24 hr by agar cup diffusion method; details: read-out: DIZ
Klebsiella pneumoniae [20] = assay: Antimicrobial activity against Klebsiella pneumoniae MTCC 109 assessed as diameter of growth inhibition zone at 250 ug/ml after 18-24 hr by agar cup diffusion method; details: read-out: DIZ
Escherichia coli [21] = assay: Antimicrobial activity against Escherichia coli MTCC 443 assessed as diameter of growth inhibition zone at 100 ug/ml after 18-24 hr by agar cup diffusion method; details: read-out: DIZ
Aspergillus clavatus [22] = assay: Antimicrobial activity against Aspergillus clavatus MTCC 1323 by agar cup diffusion method
Staphylococcus aureus [23] = assay: Antimicrobial activity against Staphylococcus aureus MTCC 96 assessed as diameter of growth inhibition zone at 25 ug/ml after 18-24 hr by agar cup diffusion method; details: read-out: DIZ
Klebsiella pneumoniae [24] = assay: Antimicrobial activity against Klebsiella pneumoniae MTCC 109 by agar cup diffusion method
Aspergillus clavatus [25] = assay: Antimicrobial activity against Aspergillus clavatus MTCC 1323 assessed as diameter of growth inhibition zone at 100 ug/ml after 48-96 hr by agar cup diffusion method; details: read-out: DIZ
Penicillium [26] = assay: Antimicrobial activity against Penicillium wild strain assessed as diameter of growth inhibition zone at 25 ug/ml after 48-96 hr by agar cup diffusion method; details: read-out: DIZ
Trichophyton rubrum [27] = assay: Antimicrobial activity against Trichophyton rubrum MTCC 296 assessed as diameter of growth inhibition zone at 250 ug/ml after 48-96 hr by agar cup diffusion method; details: read-out: DIZ
Aspergillus clavatus [28] = assay: Antimicrobial activity against Aspergillus clavatus MTCC 1323 assessed as diameter of growth inhibition zone at 25 ug/ml after 48-96 hr by agar cup diffusion method; details: read-out: DIZ
Candida albicans [29] = assay: Antimicrobial activity against Candida albicans MTCC 227 by agar cup diffusion method
Pseudomonas aeruginosa [30] = assay: Antimicrobial activity against Pseudomonas aeruginosa MTCC 1688 assessed as diameter of growth inhibition zone at 100 ug/ml after 18-24 hr by agar cup diffusion method; details: read-out: DIZ
Streptococcus pyogenes [31] = assay: Antimicrobial activity against Streptococcus pyogenes MTCC 442 assessed as diameter of growth inhibition zone at 100 ug/ml after 18-24 hr by agar cup diffusion method; details: read-out: DIZ
Penicillium [32] = assay: Antimicrobial activity against Penicillium wild strain by agar cup diffusion method
Pseudomonas aeruginosa [33] = assay: Antimicrobial activity against Pseudomonas aeruginosa MTCC 1688 by agar cup diffusion method
Aspergillus clavatus [34] = assay: Antimicrobial activity against Aspergillus clavatus MTCC 1323 assessed as diameter of growth inhibition zone at 250 ug/ml after 48-96 hr by agar cup diffusion method; details: read-out: DIZ
Klebsiella pneumoniae [35] = assay: Antimicrobial activity against Klebsiella pneumoniae MTCC 109 assessed as diameter of growth inhibition zone at 25 ug/ml after 18-24 hr by agar cup diffusion method; details: read-out: DIZ
Trichophyton rubrum [36] = assay: Antimicrobial activity against Trichophyton rubrum MTCC 296 by agar cup diffusion method
Candida albicans [37] = assay: Antimicrobial activity against Candida albicans MTCC 227 assessed as diameter of growth inhibition zone at 100 ug/ml after 48-96 hr by agar cup diffusion method; details: read-out: DIZ
Escherichia coli [38] = assay: Antimicrobial activity against Escherichia coli MTCC 443 by agar cup diffusion method
Pseudomonas aeruginosa [39] = assay: Antimicrobial activity against Pseudomonas aeruginosa MTCC 1688 assessed as diameter of growth inhibition zone at 25 ug/ml after 18-24 hr by agar cup diffusion method; details: read-out: DIZ
Streptococcus pyogenes [40] = assay: Antimicrobial activity against Streptococcus pyogenes MTCC 442 assessed as diameter of growth inhibition zone at 50 ug/ml after 18-24 hr by agar cup diffusion method; details: read-out: DIZ
Candida albicans [41] = assay: Antimicrobial activity against Candida albicans MTCC 227 assessed as diameter of growth inhibition zone at 25 ug/ml after 48-96 hr by agar cup diffusion method; details: read-out: DIZ
Aspergillus clavatus [42] = assay: Antimicrobial activity against Aspergillus clavatus MTCC 1323 assessed as diameter of growth inhibition zone at 50 ug/ml after 48-96 hr by agar cup diffusion method; details: read-out: DIZ
Klebsiella pneumoniae [43] = assay: Antimicrobial activity against Klebsiella pneumoniae MTCC 109 assessed as diameter of growth inhibition zone at 100 ug/ml after 18-24 hr by agar cup diffusion method; details: read-out: DIZ
Candida albicans [44] = assay: Antimicrobial activity against Candida albicans MTCC 227 assessed as diameter of growth inhibition zone at 250 ug/ml after 48-96 hr by agar cup diffusion method; details: read-out: DIZ
Staphylococcus aureus [45] = assay: Antimicrobial activity against Staphylococcus aureus MTCC 96 assessed as diameter of growth inhibition zone at 250 ug/ml after 18-24 hr by agar cup diffusion method; details: read-out: DIZ

Structure (SMILES): O=C(/C=C/c1ccccc1O)C1C(=O)NC(=S)NC1=O
- zone of inhibition at 25 µg/mL (Escherichia coli [1]): 13 mm
- zone of inhibition at 50 µg/mL (Escherichia coli [2]): 15 mm
- zone of inhibition at 50 µg/mL (Candida albicans [3]): 19 mm
- zone of inhibition at 250 µg/mL (Escherichia coli [4]): 17 mm
- zone of inhibition at 250 µg/mL (Pseudomonas aeruginosa [5]): 19 mm
- zone of inhibition at 50 µg/mL (Trichophyton rubrum [6]): 21 mm
- zone of inhibition at 50 µg/mL (Penicillium [7]): 19 mm
- zone of inhibition at 50 µg/mL (Pseudomonas aeruginosa [8]): 13 mm
- zone of inhibition at 50 µg/mL (Klebsiella pneumoniae [9]): 13 mm
- MBC (Streptococcus pyogenes [10]): 200 µg/mL (≈ 689 µM)
- MIC (Streptococcus pyogenes [10]): 125 µg/mL (≈ 431 µM)
- zone of inhibition at 100 µg/mL (Trichophyton rubrum [11]): 21 mm
- MBC (Staphylococcus aureus [12]): 500 µg/mL (≈ 1720 µM)
- MIC (Staphylococcus aureus [12]): 500 µg/mL (≈ 1720 µM)
- zone of inhibition at 250 µg/mL (Penicillium [13]): 23 mm
- zone of inhibition at 100 µg/mL (Staphylococcus aureus [14]): 17 mm
- zone of inhibition at 100 µg/mL (Penicillium [15]): 22 mm
- zone of inhibition at 250 µg/mL (Streptococcus pyogenes [16]): 17 mm
- zone of inhibition at 25 µg/mL (Trichophyton rubrum [17]): 18 mm
- zone of inhibition at 25 µg/mL (Streptococcus pyogenes [18]): 13 mm
- zone of inhibition at 50 µg/mL (Staphylococcus aureus [19]): 13 mm
- zone of inhibition at 250 µg/mL (Klebsiella pneumoniae [20]): 17 mm
- zone of inhibition at 100 µg/mL (Escherichia coli [21]): 16 mm
- MFC (Aspergillus clavatus [22]): > 1000 µg/mL
- MIC (Aspergillus clavatus [22]): > 1000 µg/mL
- zone of inhibition at 25 µg/mL (Staphylococcus aureus [23]): 11 mm
- MBC (Klebsiella pneumoniae [24]): 250 µg/mL (≈ 861 µM)
- MIC (Klebsiella pneumoniae [24]): 200 µg/mL (≈ 689 µM)
- zone of inhibition at 100 µg/mL (Aspergillus clavatus [25]): 20 mm
- zone of inhibition at 25 µg/mL (Penicillium [26]): 18 mm
- zone of inhibition at 250 µg/mL (Trichophyton rubrum [27]): 22 mm
- zone of inhibition at 25 µg/mL (Aspergillus clavatus [28]): 18 mm
- MFC (Candida albicans [29]): > 1000 µg/mL
- MIC (Candida albicans [29]): 1000 µg/mL (≈ 3440 µM)
- zone of inhibition at 100 µg/mL (Pseudomonas aeruginosa [30]): 17 mm
- zone of inhibition at 100 µg/mL (Streptococcus pyogenes [31]): 16 mm
- MFC (Penicillium [32]): > 1000 µg/mL
- MIC (Penicillium [32]): > 1000 µg/mL
- MBC (Pseudomonas aeruginosa [33]): 250 µg/mL (≈ 861 µM)
- MIC (Pseudomonas aeruginosa [33]): 250 µg/mL (≈ 861 µM)
- zone of inhibition at 250 µg/mL (Aspergillus clavatus [34]): 22 mm
- zone of inhibition at 25 µg/mL (Klebsiella pneumoniae [35]): 12 mm
- MFC (Trichophyton rubrum [36]): > 1000 µg/mL
- MIC (Trichophyton rubrum [36]): > 1000 µg/mL
- zone of inhibition at 100 µg/mL (Candida albicans [37]): 22 mm
- MBC (Escherichia coli [38]): 200 µg/mL (≈ 689 µM)
- MIC (Escherichia coli [38]): 125 µg/mL (≈ 431 µM)
- zone of inhibition at 25 µg/mL (Pseudomonas aeruginosa [39]): 11 mm
- zone of inhibition at 50 µg/mL (Streptococcus pyogenes [40]): 15 mm
- zone of inhibition at 25 µg/mL (Candida albicans [41]): 17 mm
- zone of inhibition at 50 µg/mL (Aspergillus clavatus [42]): 19 mm
- zone of inhibition at 100 µg/mL (Klebsiella pneumoniae [43]): 15 mm
- zone of inhibition at 250 µg/mL (Candida albicans [44]): 24 mm
- zone of inhibition at 250 µg/mL (Staphylococcus aureus [45]): 19 mm
